The source of these data is patent publication US12678414B2, “Compositions for treatment of fungal nail infections” (Blueberry Therapeutics Limited, priority 2016, dated 2026).

Entries after “also recorded” stand apart in the source; their conditions may differ. Counter-ions that a name gives are not always drawn. Like-named read-outs stand apart in the source and are kept apart here.

For data set [1] the following is noted: oral dosing, cited from earlier work.
Another data set has as its system Microsporum canis. Particulars: 49 strains tested; cited from earlier work.
In another data set the test system is T. mentagrophytes. Kind of data set: Trychophyton mentagrophytes anti-fungal paper disc lawn assay. Format: cell-based. The procedure: A single colony of T. mentagrophytes was picked from a stock plate and grown for 48 hours in 5 mls of YEPD (yeast extract, peptone, dextrose) medium at 30° C. A sterile swab was dipped into the resulting culture and then used to spread a lawn of T. mentagrophytes onto a YEPD agar plate supplemented with chloramphenicol (50 ug/ml). […] A 10 mm sterile paper disc was soaked in test solution, the excess liquid removed and the disc placed onto the T. mentagrophytes lawn. Plates were inverted and incubated at 30° C. for 5 days. The first experiment performed was to establish the approximate MIC (minimum inhibitor concentration) for terbinafine against T. mentagrophytes in a paper disc assay. […] After 5 days of incubation, zones of clearance were observed around the discs with concentrations of terbinafine having anti-fungal activity against this species (as shown in FIG. 10). […] The reported figures were certainly derived from a liquid MIC assay, which is known to be more sensitive, and so this paper disc assay represented a substantially more stringent test of drug efficacy. This assay was also used to address the question of whether terbinafine passing through the nail in BB0305 treated samples still retained its antifungal efficacy.

For the next data set, the system named is Trichophyton verrucosum. Particulars: 17 strains tested; cited from earlier work.
Data set [2] concerns Trichophyton interdigitale. Particulars: 11 strains tested; cited from earlier work.
The subject of the next data set is Microsporum species. The note with it: 25 strains tested; cited from earlier work.
Data set [3] deals with Trichophyton mentagrophytes. The note with it: cited from earlier work.
The format of data set [4] is in vitro ADME. Particulars: human, 7 days. On the procedure:
Nail clippings were soaked in water overnight at 30° C. and dried briefly. A 3 mm diameter punch was used to take disc biopsies of the nail clippings. Each nail disc was added to a Franz cell and an upper chamber of the cell attached. 40 μl of the following formulations was added to the upper chambers: 0.3 mg/ml PHMB+0.1 mg/ml terbinafine; or 10 mg/ml terbinafine. Lower collection chambers of the Franz cells were filled with water (approximately 600 μl) and the hole in the base of the sample chamber also filled with ddH2O to prevent bubbles forming beneath the nail. The upper sample chamber was carefully placed into the collection chamber ensuring not to introduce any air bubbles. Excess liquid from the collection chamber was expelled at this point leaving a final volume of liquid in the lower chamber of 500 μl. […]
The nail discs from the Franz cell were also analysed for the presence of terbinafine as follows: the remaining test sample was removed from the upper sample chamber and discarded and the sample chamber washed 5 times with 100 μl ddH2O, with each wash being discarded, in order to remove any residual test solution remaining in the sample chamber. […]
The cells were then incubated at 32° C. for 7 days. […] After 7 days, samples from the underside of the nail (ethanol washes) were collected and analysed by LC-MS/MS. […] Levels of terbinafine were quantified against drug standards. […]

The subject of a further data set is Epidermophyton floccosum. The note with it: 42 strains tested; cited from earlier work.
A short description of data set [5]: Nanoparticle analysis on Nanosight LM10. It counts as physicochemical. The procedure:
Nanoparticle formation was routinely confirmed on a Nanosight LM10 instrument (Malvern Instruments). Additional nanoparticle analyses were carried out using a Zetasizer (Malvern Instruments). […] Initial analysis used a Nanosight LM10 nanosizer (Malvern Instruments) to detect nanoparticles in solution. […] The LM10 uses direct visualisation of the particles through a microscope where particles are tracked by a video camera and their sizes calculated using the Einstein-Stokes equation, which relates particle velocity in a solution to their diameter. This video capture also allows for a qualitative assessment of different formulations during their analysis. However, this instrument has a lower cut-off range of approximately 20 nm diameter for analysis.

For the next data set, the system named is Trichophyton terestre. The note with it: 1 strain tested; cited from earlier work.
The subject of data set [6] is onychomycosis. Particulars: oral, following 3-6 months of dosing; cited from earlier work.
A further data set relates to Trichophyton species. Particulars: 27 strains tested; cited from earlier work.
In the next data set the test system is Trichophyton rubrum. The note with it: 72 strains tested; cited from earlier work.
The test system of data set [7] is onychomycosis. The note with it: topical terbinafine; hydrochloride; cited from earlier work.

For `CN(C/C=C/C#CC(C)(C)C)Cc1cccc2ccccc12` [terbinafine, terbinafine hydrochloride], the entries for the “terbinafine concentration in nails” value in data set [1] (after 3 weeks), in [1] (after 18 months) and in data set [1] (after 7 days treatment) were “about 0.25 μg/g”, 0.55 µg/g and 0.1 µg/g, respectively. In addition, the MIC range is 6 to 80 ng/mL with Microsporum canis; 1 to 6 ng/mL in the data set with Trichophyton verrucosum; 2 to 28 ng/mL in data set [2]; 2 to 70 ng/mL with Microsporum species; 1 to 6 ng/mL in data set [3] (32 strains tested); 1 to 47 ng/mL in the data set with Epidermophyton floccosum. The MIC range in the data set on Trichophyton terestre is 2 ng/mL; in the data set with Trichophyton species, not above 60 ng/mL; with Trichophyton rubrum it was 1 to 38 ng/mL. In addition, the “paper disc MIC relative to previously reported MIC” value in the data set on T. mentagrophytes (0.6 μg/ml versus 6 ng/ml) is reported as more than 100 ×. For the same molecule, in the data set on T. mentagrophytes (Trichophyton mentagrophytes, 120 h, paper disc assay, 5 days incubation, approximate, read-out: MIC (minimum inhibitor concentration)), the MIC was 600 ng/mL. The “antifungal activity (zone of clearance) of sample that passed through nail” value in the data set on T. mentagrophytes (aqueous phase of Franz cell collection chamber after 7 days treatment of healthy human nail, 30° C., 5 days) is “no effect”. In addition, the “previously reported MIC” value in [3] (liquid MIC assay, with reference to Table 1) was 6 ng/mL. Besides, the “median concentration of drug in dissolved nails” value in data set [4] was “approximately 0.5 mg/g”. Besides, the “terbinafine passing through the nail (ethanol washes of underside)” value in data set [4] (0.1 mg/ml) was less than 0.1 ng/mL. The “number of particles/ml of solution” value in data set [5] (0.1 mg/ml terbinafine in 30% (v/v) ethanol) was less than 5e+07 mL⁻¹. Besides, the “particle size range (diameter)” value in data set [5] (0.1 mg/ml terbinafine, 30% ethanol) was 50-800 nm. Further, the particle number in data set [5] (30% ethanol, room temperature at least 24 hours, 0.1 mg/ml terbinafine) was 0.5×10^8 particles/ml. For the same molecule, the cure in the data set on onychomycosis [6] was more than 80%. The “efficacy in the treatment of onychomycosis” value with onychomycosis [7] was “failed to show efficacy; also recorded: failed to demonstrate any significant efficacy”.
